The record followed here is patent US10968198B2, “Biaryltriazole inhibitors of macrophage migration inhibitory factor” (YALE UNIVERSITY, priority 2015, dated 2021).

SMILES strings stand for the structures.

The test deals with human MIF (Homo sapiens (Human), UniProt P14174). As to the kind of experiment: X-ray crystallography of complexes with human MIF. The conditions noted are these: co-crystal or soak. Here is the method: The solution was centrifuged at 13,000×g to remove precipitated compound and used to set up hanging-drop crystallization experiments. A reservoir of 2.0 M ammonium sulfate, 0.1 M Tris pH 7, and 3% isopropanol was added to the protein solution in a 1:1 ratio and stored at 20° C. Diffraction-quality crystals with a rod morphology grew within two weeks. The crystals were cryo-protected in 25% glycerol, 2.0M ammonium sulfate, 0.1 M Tris pH 7, and 3% isopropanol. Data was collected at the Advanced Photon Source remotely on the NE-CAT 24-ID-E beam line. […] Crystals were obtained by the hanging-drop method at 20° C. A reservoir of 2.2 M ammonium sulfate, 0.1 M Tris pH 7, and 3% isopropanol mixed in a 1:1 ratio with rhMIF (16 mg/mL) was used to produce 2 μL drops. […] Crystals were cryo-protected with 25% glycerol, 2.2 M ammonium sulfate, 0.1 M Tris pH 7, and 3% isopropanol. […] HKL2000 was used to index, integrate, and scale the MIF-3a data set in the […] space group and the MIF-3b in the P212121 space group. Phases were obtained by molecular replacement with PDB file 3U18 using the CCP4 and PHASER programs. Model building was performed in COOT with iterative restrained refinement with REFMAC.
As for `Oc1ccc(-n2cc(-c3ccc4ccccc4n3)nn2)cc1` [Example 3a, 4-(4-(quinolin-2-yl)-1H-1,2,3-triazol-1-yl)phenol], the “binding site in X-ray crystal structure of complex with human MIF” value (shortened to “binding site in X-ray crystal structure”) is listed as “binding of these inhibitors in the tautomerase active site”.

`COCCOc1ccc2nc(-c3cn(-c4ccc(O)cc4)nn3)ccc2c1` [Example 3b, 4-(4-(6-(2-methoxyethoxy)quinolin-2-yl)-1H-1,2,3-triazol-1-yl)phenol]: the “binding site in X-ray crystal structure” value is reported as “binding of these inhibitors in the tautomerase active site”.

With `Oc1ccc(-n2cc(-c3ccc4cc(OCCOCCN5CCOCC5)ccc4n3)nn2)cc1` [Example 3v, 4-(4-(6-(2-(2-morpholinoethoxy)ethoxy)quinolin-2-yl)-1H-1,2,3-triazol-1-yl)phenol], the “binding site in X-ray crystal structure” value is recorded as “binding of these inhibitors in the tautomerase active site”.
